Values joined by “and” are separate entries in the source; they are usually repeats but may differ in a detail not shown here. Identical values can stand only once. “Also recorded” adds a separate entry of the source.
Tests used:
[1] = test system: PSMA messenger RNA in LNCaP prostate cancer cell line; conditions: LNCaP cells after exposure to DHT; cited from earlier work
ODC = biological target: T1, ODC (Homo sapiens, UniProt P11926); conditions: concentrations from 0.6 μM to 80 μM; three separate studies; cited from earlier work
T1 sequence (P11926 1-461): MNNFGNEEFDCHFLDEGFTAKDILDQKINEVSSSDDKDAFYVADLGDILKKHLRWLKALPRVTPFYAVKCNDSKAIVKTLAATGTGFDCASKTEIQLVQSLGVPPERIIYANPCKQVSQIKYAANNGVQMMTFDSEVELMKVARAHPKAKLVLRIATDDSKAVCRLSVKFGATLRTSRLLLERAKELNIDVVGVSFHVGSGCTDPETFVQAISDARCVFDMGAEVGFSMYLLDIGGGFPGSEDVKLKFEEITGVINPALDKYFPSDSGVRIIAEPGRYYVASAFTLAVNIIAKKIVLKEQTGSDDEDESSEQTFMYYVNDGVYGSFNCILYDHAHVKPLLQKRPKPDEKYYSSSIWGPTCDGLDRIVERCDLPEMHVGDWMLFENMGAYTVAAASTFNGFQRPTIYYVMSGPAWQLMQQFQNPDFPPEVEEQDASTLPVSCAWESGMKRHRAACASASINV

[2] = test system: matrilysin expression in LNCaP human prostate cancer derived cells; experiment: IL-1β-induced matrilysin expression in LNCaP cells; assay type: cell-based
Description: As indicated earlier, DFMO acts late in the tumor promotion stage of epithelial carcinogenesis.

[3] = Side effects and coagulation parameters in men taking oral DFMO; assay type: in vivo, human
Description: (§1) This protocol was approved by the investigational review board of the University of California Irvine and the Long Beach Veterans Administration Medical Center. Men between the ages of 50 and 85, who were undergoing a trans-rectal prostate needle biopsy for either an elevated PSA or abnormal rectal exam, signed a written consent to undergo four additional core needle biopsies of the peripheral zone at the time of their, routine extant biopsy. The additional four biopsies were immediately frozen liquid nitrogen and stored in the minus 70-degree freezer. The […] biopsy was sent to Pathology for routine analysis. […] Patients were monitored for side effects using questionnaires and interview techniques. Coagulation parameters were carefully assessed prior to surgery. In the operating room just prior to the surgical procedure four trans-rectal core biopsies of the peripheral zone were taken and frozen. The pre and post DFMO specimens were sent together to Arizona on dry ice for histology and polyamine analysis. Radical prostatectomy specimens were staged according to the TMN updated 1997 staging system (American Joint Committee on Cancer 1997).

[4] = test system: human prostate polyamine levels and ODC activity; conditions: cited from earlier work
[5] = test system: polyamines (putrescine, spermidine, spermine) in the human prostate; experiment: Prostate core biopsy polyamine content before and after 28 days of oral DFMO; assay type: in vivo; conditions: oral DFMO 0.5 gm/m^2 for 28 days
Description: This protocol was approved by the investigational review board of the University of California Irvine and the Long Beach Veterans Administration Medical Center. Men between the ages of 50 and 85, who were undergoing a trans-rectal prostate needle biopsy for either an elevated PSA or abnormal rectal exam, signed a written consent to undergo four additional core needle biopsies of the peripheral zone at the time of their, routine extant biopsy. The additional four biopsies were immediately frozen liquid nitrogen and stored in the minus 70-degree freezer. The […] biopsy was sent to Pathology for routine analysis. […] Patients were monitored for side effects using questionnaires and interview techniques. Coagulation parameters were carefully assessed prior to surgery. In the operating room just prior to the surgical procedure four trans-rectal core biopsies of the peripheral zone were taken and frozen. The pre and post DFMO specimens were sent together to Arizona on dry ice for histology and polyamine analysis. Radical prostatectomy specimens were staged according to the TMN updated 1997 staging system (American Joint Committee on Cancer 1997). To determine prostate core polyamine contents, cores were first thawed, washed in phosphate buffered saline (PBS) and weighted. Samples were then minced in 0.2 N perchloric acid and sonicated to disrupt cellular material. Samples were centrifuged at 2,000×g for 5 minutes to separate acid soluble and insoluble fractions. The acid soluble fraction was evaluated for polyamine contents, using reverse-phase, ion-pared high performance liquid chromatography (PHLC) methods, as described elsewhere ([…] et al. 1994; […] et al 1994; […] et al. 1998). Briefly, polyamines are separated on a C18 B Ondapak column, derivatized with […] separation and detected by absorption of the derivatized material at 750 nm. Mean, median, and range for polyamine levels are reported in nmol/mg protein. The limit of detection of our method is 0.01 nmol/mg. Histological Changes were assessed by bright field microscopy methods. Pre- and post DFMO polyamine values were compared using the Wilcoxon matched-pairs signed rank test. Thus, for each patient we were able to take into account both the magnitude and the direction of changes in polyamines due to DFMO.

PSA = experiment: Serum PSA in men taking oral DFMO; assay type: in vivo, human
Description: as §1

mouse epidermis = conditions: topically applied five percent solution of DFMO; cited from earlier work
cutaneous spermine = conditions: ten percent DFMO cream; ten patients suffering from psoriasis; cited from earlier work
[6] = test system: polyamines in rat prostate; conditions: two weeks of 100 mg/kg DFMO, cited from earlier work
prostate tumor = conditions: rat, in vivo, ip; cited from earlier work
[7] = test system: tumors harboring Ki-ras mutations; conditions: AOM-treated rats; reduced from 90%; cited from earlier work
prostatic ODC = biological target: T2, prostatic ODC (Rattus norvegicus, UniProt P09057); conditions: cited from earlier work
T2 construct: from tissue; host or cells: rat prostate (animals treated in vivo with DFMO)
T2 sequence (P09057 1-461): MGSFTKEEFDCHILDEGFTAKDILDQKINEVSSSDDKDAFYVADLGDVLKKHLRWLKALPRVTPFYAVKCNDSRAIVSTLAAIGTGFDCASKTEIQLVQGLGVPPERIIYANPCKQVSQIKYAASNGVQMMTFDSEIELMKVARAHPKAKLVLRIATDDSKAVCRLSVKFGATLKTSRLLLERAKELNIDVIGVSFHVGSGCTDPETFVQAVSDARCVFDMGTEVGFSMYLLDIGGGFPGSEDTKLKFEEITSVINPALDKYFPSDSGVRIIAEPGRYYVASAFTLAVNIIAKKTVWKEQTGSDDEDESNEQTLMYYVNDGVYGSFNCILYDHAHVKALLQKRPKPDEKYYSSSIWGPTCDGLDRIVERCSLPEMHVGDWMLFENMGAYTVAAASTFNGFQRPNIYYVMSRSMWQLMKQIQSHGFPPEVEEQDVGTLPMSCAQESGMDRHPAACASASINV

prostate cancer [8] = conditions: one year of Proscar; 1 of 25 men with no treatment; p=0.025; cited from earlier work
prostate cancer [9] = conditions: oral fenretinide; 22 men at high risk; trial closed early; cited from earlier work
[10] = oral DFMO 0.5 gm/m^2, about 28 days
[11] = two weeks of DFMO 0.5 gm/m^2 orally

## C[C@]12CCC(=O)C[C@@H]1CC[C@@H]1[C@@H]2CC[C@]2(C)[C@@H](O)CC[C@@H]12 [5-α-dihydroxytestosterone]
[1]
  down-regulation of PSMA mRNA: 8-10 fold

## NCCC[C@@](N)(C(=O)O)C(F)F [D-DFMO]
ODC
  inhibition of ODC activity: inhibitory

## NCCC[C@](N)(C(=O)O)C(F)F [DFMO, alpha-difluoromethylornithine]
[2]
  interleukin-1β (IL-1β)-induced matrilysin expression: suppresses
[3]; [10]
  bleeding time prior to surgery: not altered
  change in platelet counts or protime: no clinically significant change
[3]; oral DFMO 0.5 gm/m^2, average 28.2 days, grade 0 to 1
  men reporting side effects: four men
[4]; fourteen men completed two weeks of DFMO
  toxicity: no toxicity
[4]; two weeks of DFMO 0.5 gm/m^2
  ODC activity, DFMO vs placebo: no differences
[4]; two weeks of DFMO 0.5 gm/m^2, placebo 1.95, p=0.03
  mean putrescine level in prostate cores: 1.43
[4]; [11]
  spermidine level, DFMO vs placebo: no differences; also recorded: failed to detect any reduction
  spermine level, DFMO vs placebo: no differences; also recorded: failed to detect any reduction
[5]; n=9
  range of spermine level after DFMO: 3.24 to 25.58 nmol/mg
[5]; n=9, p=0.004
  spermidine average percent decrease from baseline: 73.6% and 74%
  spermine average decrease from baseline: 50.8% and 51%
[5]; n=9, pre-DFMO average 29.14
  average level of spermine after DFMO: 14.33 nmol/mg
[5]; n=9, pre-DFMO median 28.85
  median level of spermine after DFMO: 17.40 nmol/mg
[5]; n=9, pretreatment average 1.21
  average level of spermidine after therapy: 0.32 nmol/mg
[5]; n=9, pretreatment median 0.81
  median level of spermidine after therapy: 0.21 nmol/mg
[5]; prostate core biopsy, all nine men, detection limit 0.01 nmol/mg
  putrescine level after DFMO: undetectable
[5]; six men with pre-DFMO putrescine ≧0.01, p=0.031
  putrescine average decrease from baseline: 97.6% and 98%
PSA; five patients, increase in patients 3,8,9
  PSA change on DFMO, patients with malignant pathology: increased in 3 of 5
PSA; four patients (1,4,5,7), pre-biopsy or pre-DFMO PSA vs PSA on DFMO
  PSA change on DFMO, patients with final benign pathology: decreased in each patient
PSA; individual patients 1-9, drawn while on DFMO
  Pre-op PSA: 3.7 ng/ml and 7.5 ng/ml and 2.5 ng/ml and 1.4 ng/ml and 5 ng/ml and 2.3 ng/ml and 6.8 ng/ml and 35.5 ng/ml and 8.2* ng/ml
Mouse epidermis
  spermine and spermidine levels: not affected
Cutaneous spermine
  improvement in psoriatic lesions: marginal improvement
  reduction of cutaneous spermine levels: sixty-six percent
[6]; control 202±37
  putrescine in rat prostate after DFMO: 4 ± 4 nmol/g
[6]; control 2968±293, no significant reduction
  spermine in rat prostate after DFMO: 2741±346
[6]; control 7334±193
  spermidine in rat prostate after DFMO: 1188±289
Prostate tumor
  systemic toxicity: no systemic toxicity
[7]
  number of tumors harboring Ki-ras mutations: 36%
ODC
  inhibition of ODC activity: inhibitory
Prostatic ODC; by 24 hrs, 100 mg/kg every 12 hrs i.p.
  prostatic ODC reduction compared to control: 50%
Prostatic ODC; throughout the two week study
  sustained suppression of prostatic ODC activity, remaining activity: 50 % of baseline activity

## NCCC[C@](N)(C(=O)O)C(F)F [L-DFMO]
ODC
  inhibition of ODC activity: inhibitory

## CC(C)(C)NC(=O)[C@H]1CC[C@H]2[C@@H]3CC[C@H]4NC(=O)C=C[C@]4(C)[C@H]3CC[C@]12C [Proscar, finasteride]
Prostate cancer [8]
  men with cancer diagnosed at one year follow up biopsy: 8 of 27

## CC1=C(/C=C/C(C)=C/C=C/C(C)=C/C(=O)Nc2ccc(O)cc2)C(C)(C)CCC1 [fenretinide]
Prostate cancer [9]
  men with negative prestudy biopsies who developed malignancy while on study: 8 men

## CN1C(C(=O)Nc2ccccn2)=C(O)c2ccccc2S1(=O)=O [piroxicam]
[7]
  number of tumors harboring Ki-ras mutations: 25%
